Literature values in patent US7732404B2 (priority 1999, dated 2010).

System: mice
Details: mouse, in vivo, po

Which LD50 does the source give for `CCOC(=O)C(C)O` (stereo not shown) [Ethyl lactate, 2-hydroxypropanoic acid ethyl ester] here?
Its LD50 is “higher than 5 g/kg”.
